Values joined by “and” are separate entries in the source; they are usually repeats but may differ in a detail not shown here. Equal entries are not always repeated.

The values below come from US20240382472A1, “NEUTROPHIL ELASTASE INHIBITORS FOR USE IN THE TREATMENT OF FIBROSIS” (MEREO BIOPHARMA 4 LIMITED, priority 2021, published 2024).

Series [1] concerns the target T1, Neutrophil Elastase (NE) (Homo sapiens, UniProt P08246).
T1 sequence (P08246 30-267): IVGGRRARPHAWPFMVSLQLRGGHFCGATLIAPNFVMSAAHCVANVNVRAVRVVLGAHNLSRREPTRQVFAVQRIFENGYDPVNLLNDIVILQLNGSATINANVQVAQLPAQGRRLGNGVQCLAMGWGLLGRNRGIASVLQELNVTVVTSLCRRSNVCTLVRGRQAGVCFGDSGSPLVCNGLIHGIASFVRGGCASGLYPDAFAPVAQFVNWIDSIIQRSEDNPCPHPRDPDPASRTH
The note with it: from WO2021/053058, Examples 1-5; cited from earlier work.

In the next series the test system is PRO-C6. The experiment in a line: Phase 1b study: collagen type 6 synthesis biomarker PRO-C6 by competitive ELISA. The note with it: above ULN at baseline; during alvelestat treatment; FIG. 3B. The format is in vivo, human. How it is done:
(§1) Patients age ≥18 years with BOS and chronic GVHD after HCT were recruited to the National Cancer Institute protocol (NCT02669251). This phase 1 study had 2 parts: 8-week intra-patient dose escalation period, followed by a continuation period that allowed for up to 6 months of treatment. Alvelestat was given orally starting at 60 mg twice daily, increased every 2 weeks to 120 mg twice daily, 180 mg twice daily, and finally 240 mg twice daily.
(§2) Blood biomarkers for neutrophil elastase activity, desmosine, isodesmosine, PRO-C3 and PRO-C6, were collected at baseline (pre-treatment with alvelestat) and after every 2 weeks during alvelestat dose escalations i.e. after 60 mg bid, 120 mg bid, 180 mg bid and 240 mg bid.
(§3) Biomarkers of novel epitopes (neoepitopes) related to collagen turnover and fibrosis (PRO-C6, PRO-C3, C3M, and C6M) were measured by competitive Enzyme Linked Immunosorbant Assay (ELISA) (Nordic Biosciences, Denmark).[1]
On the technique in general: ELISA stands for enzyme-linked immunosorbent assay.

The conditions of series [2]: from WO2021/053058, Examples 1-5; cited from earlier work.
Series [3] addresses T1, Neutrophil Elastase (NE). The series is described as follows: Phase 1b study: ex-vivo zymosan-stimulated neutrophil elastase activity in whole blood. On the set-up: induce degranulation of white blood cells including neutrophils, releasing an excess of free active NE into the plasma; from tissue; host or cells: whole blood of patients (neutrophils degranulated with zymosan); plasma measured with ProteaseTag Active Neutrophil Elastase Immunoassay (ProAxsis Ltd). As to conditions: FIG. 2. How it is done: Patients age ≥18 years with BOS and chronic GVHD after HCT were recruited to the National Cancer Institute protocol (NCT02669251). […] Alvelestat was given orally starting at 60 mg twice daily, increased every 2 weeks to 120 mg twice daily, 180 mg twice daily, and finally 240 mg twice daily.
as §2
Ex-vivo zymosan-stimulated Neutrophil Elastase (NE) activity was measured by the following assay: zymosan was added to whole blood to induce degranulation of white blood cells including neutrophils, releasing an excess of free active NE into the plasma. The blood was centrifuged and plasma removed. The level of NE in the plasma sample was measured by the ProteaseTag® Active Neutrophil Elastase Immunoassay (ProAxsis Ltd, Belfast, Northern Ireland).

Series [4] relates to desmosine (DES) and isodesmosine (IDES). The experiment in a line: Phase 1b study: plasma desmosine and isodesmosine by isotope-dilution LC/MS. In kind it is in vivo, human. How it is done: as §1, §2
DES and IDES levels in the plasma were measured by an isotope-dilution, liquid-chromatography/mass spectrometry method (Huang et al Thorax 2012; 67:502-508).[12] [13]
Results are presented as Mean and Standard Error Mean (SEM). Samples were taken at baseline and at the end of each dose-escalation stage.

Another series relates to PRO-C3. The series is described as follows: Phase 1b study: collagen type 3 synthesis biomarker PRO-C3 (and PRO-C3:C3M ratio) by competitive ELISA. The format is in vivo, human. The procedure:
as §1, §2, §3

Another series concerns C3M (collagen Type 3). The experiment in a line: 12-week study NCT03636347: collagen degradation biomarker C3M. The format is in vivo, human. As to conditions: alvelestat at week 12, three treatment arms pooled, N = 34; ANCOVA. How it is done:
(§4) An aspect of NCT03636347 was to investigate the effect of alvelestat on collagen biomarkers in patients with PiZZ, null or rare variant phenotype/genotype alpha-1 anti-trypsin deficient lung disease. % Change from baseline in a number collagen degradation biomarkers were measured over a 12 week period in alvelestat and placebo arms. Inclusion criteria: patients (18 Years to 75 Years) with a confirmed diagnosis of alpha-1-anti-trypsin deficiency and a PiZZ, null or other rare geno/phenotype and serum […] levels of less than 11 uM; FEV1≥20% predicted; Computerised tomography (CT) scan evidence of emphysema; and non-smokers. Alvelestat was given orally at 120 mg twice daily, 240 mg twice daily, or dose escalation up to 240 mg twice daily, so there were three alvelestat treatment arms. Collagen degradation biomarkers […] (collagen Type 1), […] (collagen Type 6), […] (collagen Type 4) C3M (collagen Type 3) were collected at baseline (e.g. before treatment with alvelestat or placebo) and after 12 weeks following treatment with alvelestat or placebo. Biomarkers related to C3M and […] were measured by competitive Enzyme Linked Immunosorbant Assay (ELISA) (Nordic Biosciences, Denmark).[1] Biomarkers related to […] and […] were measured with Nordic Bioscience assays [Chest. […] C1M, […] concentrations were measured in ng/mL. […]

The subject of another series is C1M (collagen Type 1). The series is described as follows: 12-week study NCT03636347: collagen degradation biomarker C1M. The note with it: alvelestat at week 12, three treatment arms pooled, N = 32; alpha-1 anti-trypsin deficient lung disease; ANCOVA. In kind it is in vivo, human. How it is done: as §4
The next series relates to C4Ma3 (collagen Type 4). The series is described as follows: 12-week study NCT03636347: collagen degradation biomarker C4Ma3. The note with it: alvelestat at week 12, three treatment arms pooled, N = 17; ANCOVA. The format is in vivo, human. How it is done:
as §4

Another series deals with C6M (collagen Type 6). The experiment in a line: 12-week study NCT03636347: collagen degradation biomarker C6M. The format is in vivo, human. The note with it: alvelestat at week 12, three treatment arms pooled, N = 36; ANCOVA. How it is done: as §4
The nature of series [5]: Phase 1b study in patients with BOS after HCT: tolerability and clinical outcome. The format is in vivo. The procedure: as §1

Take `Cc1c(-c2ccnn2C)cc(C(=O)NCc2ccc(S(C)(=O)=O)cn2)c(=O)n1-c1cccc(C(F)(F)F)c1` [alvelestat, N-{[5-(methanesulfonyl)pyridin-2-yl]methyl}-6-methyl-5-(1-methyl-1H-pyrazol-5-yl)-2-oxo-1-[3-(trifluoromethyl)phenyl]-1,2-dihydropyridine-3-carboxamide]: the “Inhibition of neutrophil elastase (NE)” value on Neutrophil Elastase (NE) [1] is “potent and specific inhibitor”. In addition, the “Collagen synthesis as measured by PRO-C6” value in the series on PRO-C6 is “declined”. The “Effect against GVHD” value in [2] is “protective effect”. At Neutrophil Elastase (NE) [3] (over the dose escalation period, N=7), the “Ex vivo zymosan stimulated elastase activity, course” value is on record as “progressive decrease”. The “Suppression of ex vivo zymosan stimulated elastase activity” value on Neutrophil Elastase (NE) [3] (some subjects, dose escalation period) turned out to be 100%. In series [4] (patients with BOS after HCT, N=7, week 8 of dose escalation 60 to 240 mg twice daily oral, baseline 0.464), the “DES and IDES plasma level, mean (SEM)” value was 0.380 (SEM 0.0419) ng/ml. Further, the “DES and IDES mean within subject % change from baseline (CFB)” value in [4] (week 8 of dose escalation, SEM 6.794, FIG. 1) is on record as −16.2%. Moreover, the “Collagen synthesis as measured by PRO-C3” value in the series with PRO-C3 (above ULN at baseline, during alvelestat treatment, FIG. 3A) is on record as “declined”. The “Ratio of PRO-C3 to C3M” value with PRO-C3 (blood samples during the study, n=7, FIG. 4) is listed as “decrease”. For the same compound, the “C3M change from baseline (%), LS Means (SE)” value in the series on C3M (collagen Type 3) is −1.7 (4.08) %. Also, in the series with C1M (collagen Type 1), the “C1M change from baseline (%), LS Means (SE)” value is −0.6% and −0.6 (49.42) %. Moreover, in the series with C4Ma3 (collagen Type 4), the “C4Ma3 change from baseline (%), LS Means (SE)” value is recorded as −6.6 (8.96) %. In addition, in the series on C6M (collagen Type 6), the “C6M change from baseline (%), LS Means (SE)” value is 1.1% and 1.1 (5.52) %. In addition, the “Tolerability of dose escalation” value in [5] (all 7 patients, up to maximum dose 240 mg twice daily) is on record as “able to tolerate dose escalation”. Also, the “Lung disease outcome (FEV1% predicted at end of treatment no worse than 10% below baseline level)” value in [5] (the 6 patients with biomarker suppression) was “improved or stable lung disease”. Besides, the “Patients with consistent suppressive effect on biomarkers of elastase activity and collagen turnover” value in series [5] (treated patients, phase 1b) is listed as 6 of 7.
